Drawing on ChEMBL document CHEMBL1130680, “Restricting the flexibility of crosslinked, interfacial peptide inhibitors of HIV-1 protease” (Bioorg Med Chem Lett, 1998), this text covers IC50 for twelve compounds.

For this experiment, the target named is Human immunodeficiency virus type 1 protease (Human immunodeficiency virus 1, UniProt Q72874). As to the kind of experiment: Inhibition of HIV-1 protease by fluorogenic substrate assay.
As usually defined, the IC50 is the midpoint of a concentration-inhibition curve. A high value points to weaker potency in that assay. `CC[C@H](C)[C@H](NC(=O)[C@H](CCC(N)=O)NC(=O)[C@@H]1CCCN1C(=O)CCCCC/C=C/CCCCCC(=O)N[C@H](CO)C(=O)N[C@@H](C(=O)N[C@H](CC(C)C)C(=O)N[C@H](CC(N)=O)C(=O)N[C@H](Cc1ccccc1)C(=O)O)[C@H](C)O)C(=O)N[C@H](C(=O)N[C@@H](CC(C)C)C(=O)N[C@@H](Cc1c[nH]c2ccccc12)C(=O)O)[C@@H](C)O`: inhibition was half-maximal at 51.5 µM (IC50).

In turn, `CC[C@H](C)[C@H](NC(=O)[C@H](CCC(N)=O)NC(=O)[C@@H]1CCCN1C(=O)CCCCCC/C=C/CCCCCCC(=O)N[C@H](CO)C(=O)N[C@@H](C(=O)N[C@H](CC(C)C)C(=O)N[C@H](CC(N)=O)C(=O)N[C@H](Cc1ccccc1)C(=O)O)[C@H](C)O)C(=O)N[C@H](C(=O)N[C@@H](CC(C)C)C(=O)N[C@@H](Cc1c[nH]c2ccccc12)C(=O)O)[C@@H](C)O` showed a half-maximal inhibitory concentration (IC50) of 17.5 µM.

The compound `CC[C@H](C)[C@H](NC(=O)[C@H](CCC(N)=O)NC(=O)[C@@H]1CCCN1C(=O)CCCCCCC/C=C/CCCCCCCC(=O)N[C@H](CO)C(=O)N[C@@H](C(=O)N[C@H](CC(C)C)C(=O)N[C@H](CC(N)=O)C(=O)N[C@H](Cc1ccccc1)C(=O)O)[C@H](C)O)C(=O)N[C@H](C(=O)N[C@@H](CC(C)C)C(=O)N[C@@H](Cc1c[nH]c2ccccc12)C(=O)O)[C@@H](C)O` displayed an IC50 of 6.3 µM.

In turn, `CC[C@H](C)[C@H](NC(=O)[C@H](CCC(N)=O)NC(=O)[C@@H]1CCCN1C(=O)CCCCCC/C=C\CCCCCCC(=O)N[C@H](CO)C(=O)N[C@@H](C(=O)N[C@H](CC(C)C)C(=O)N[C@H](CC(N)=O)C(=O)N[C@H](Cc1ccccc1)C(=O)O)[C@H](C)O)C(=O)N[C@H](C(=O)N[C@@H](CC(C)C)C(=O)N[C@@H](Cc1c[nH]c2ccccc12)C(=O)O)[C@@H](C)O` displayed an IC50 of 12.9 µM.

Take `CC[C@H](C)[C@H](NC(=O)[C@H](CCC(N)=O)NC(=O)[C@@H]1CCCN1C(=O)CCCCC/C=C\CCCCCC(=O)N[C@H](CO)C(=O)N[C@@H](C(=O)N[C@H](CC(C)C)C(=O)N[C@H](CC(N)=O)C(=O)N[C@H](Cc1ccccc1)C(=O)O)[C@H](C)O)C(=O)N[C@H](C(=O)N[C@@H](CC(C)C)C(=O)N[C@@H](Cc1c[nH]c2ccccc12)C(=O)O)[C@@H](C)O`: half-maximal inhibition (IC50) required 32.7 µM.

For the compound `CC[C@H](C)[C@H](NC(=O)[C@H](CCC(N)=O)NC(=O)[C@@H]1CCCN1C(=O)CCCCCCCCCCCCCCCCC(=O)N[C@H](CO)C(=O)N[C@@H](C(=O)N[C@H](CC(C)C)C(=O)N[C@H](CC(N)=O)C(=O)N[C@H](Cc1ccccc1)C(=O)O)[C@H](C)O)C(=O)N[C@H](C(=O)N[C@@H](CC(C)C)C(=O)N[C@@H](Cc1c[nH]c2ccccc12)C(=O)O)[C@@H](C)O`, half-maximal inhibition (IC50) required 4 µM.

On to `CC[C@H](C)[C@H](NC(=O)[C@H](CCC(N)=O)NC(=O)[C@@H]1CCCN1C(=O)CCCCCCCCCCCCCCC(=O)N[C@H](CO)C(=O)N[C@@H](C(=O)N[C@H](CC(C)C)C(=O)N[C@H](CC(N)=O)C(=O)N[C@H](Cc1ccccc1)C(=O)O)[C@H](C)O)C(=O)N[C@H](C(=O)N[C@@H](CC(C)C)C(=O)N[C@@H](Cc1c[nH]c2ccccc12)C(=O)O)[C@@H](C)O`, for which the IC50 was determined as 2 µM.

Take `CC[C@H](C)[C@H](NC(=O)[C@H](CCC(N)=O)NC(=O)[C@@H]1CCCN1C(=O)CCCCCCCCCCCCC(=O)N[C@H](CO)C(=O)N[C@@H](C(=O)N[C@H](CC(C)C)C(=O)N[C@H](CC(N)=O)C(=O)N[C@H](Cc1ccccc1)C(=O)O)[C@H](C)O)C(=O)N[C@H](C(=O)N[C@@H](CC(C)C)C(=O)N[C@@H](Cc1c[nH]c2ccccc12)C(=O)O)[C@@H](C)O`: it took 13 µM to reach half-maximal inhibition (IC50).

In turn, `CC[C@H](C)[C@H](NC(=O)[C@H](CCC(N)=O)NC(=O)[C@@H]1CCCN1C(=O)CCCCCCCC#CCCCCCCCC(=O)N[C@H](CO)C(=O)N[C@@H](C(=O)N[C@H](CC(C)C)C(=O)N[C@H](CC(N)=O)C(=O)N[C@H](Cc1ccccc1)C(=O)O)[C@H](C)O)C(=O)N[C@H](C(=O)N[C@@H](CC(C)C)C(=O)N[C@@H](Cc1c[nH]c2ccccc12)C(=O)O)[C@@H](C)O` had an IC50 of 7.2 µM.

Compound `CC[C@H](C)[C@H](NC(=O)[C@H](CCC(N)=O)NC(=O)[C@@H]1CCCN1C(=O)CCCCCCC#CCCCCCCC(=O)N[C@H](CO)C(=O)N[C@@H](C(=O)N[C@H](CC(C)C)C(=O)N[C@H](CC(N)=O)C(=O)N[C@H](Cc1ccccc1)C(=O)O)[C@H](C)O)C(=O)N[C@H](C(=O)N[C@@H](CC(C)C)C(=O)N[C@@H](Cc1c[nH]c2ccccc12)C(=O)O)[C@@H](C)O` showed an IC50 of 4.5 µM.

`CC[C@H](C)[C@H](NC(=O)[C@H](CCC(N)=O)NC(=O)[C@@H]1CCCN1C(=O)CCCCCC#CCCCCCC(=O)N[C@H](CO)C(=O)N[C@@H](C(=O)N[C@H](CC(C)C)C(=O)N[C@H](CC(N)=O)C(=O)N[C@H](Cc1ccccc1)C(=O)O)[C@H](C)O)C(=O)N[C@H](C(=O)N[C@@H](CC(C)C)C(=O)N[C@@H](Cc1c[nH]c2ccccc12)C(=O)O)[C@@H](C)O` returned a half-maximal inhibitory concentration (IC50) of 21 µM.

`CC[C@H](C)[C@H](NC(=O)[C@H](CCC(N)=O)NC(=O)[C@@H]1CCCN1C(=O)CCCCCCC/C=C\CCCCCCCC(=O)N[C@H](CO)C(=O)N[C@@H](C(=O)N[C@H](CC(C)C)C(=O)N[C@H](CC(N)=O)C(=O)N[C@H](Cc1ccccc1)C(=O)O)[C@H](C)O)C(=O)N[C@H](C(=O)N[C@@H](CC(C)C)C(=O)N[C@@H](Cc1c[nH]c2ccccc12)C(=O)O)[C@@H](C)O`: half-maximal inhibition (IC50) required 4.4 µM.
